Patent publication US8309552B2, “Immunomodulating heterocyclic compounds” (Medigene AG, priority 2003, dated 2012)

molecular target: T1, CD80-CD28 interaction (Homo sapiens, UniProt P33681); experiment: Homogenous Time Resolved Fluorescence (HTRF) assay, cell free; format: binding; conditions: cell free HTRF assay; concentration series 100 μM-1.7 nM; 4 hours at room temperature; read-out: Activity (EC50 in the HTRF assay)
T1 sequence (P33681 35-242 limits assumed): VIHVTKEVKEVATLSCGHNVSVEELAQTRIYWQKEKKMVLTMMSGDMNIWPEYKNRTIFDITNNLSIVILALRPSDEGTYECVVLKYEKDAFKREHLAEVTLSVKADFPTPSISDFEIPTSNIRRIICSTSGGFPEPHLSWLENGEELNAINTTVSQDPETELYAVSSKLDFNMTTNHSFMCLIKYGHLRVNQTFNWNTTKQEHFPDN
Procedure: Homogenous Time Resolved Fluorescence Assay
The examples described above were tested in a cell free Homogenous Time Resolved Fluorescence (HTRF) assay to determine their activity as inhibitors of the CD80-CD28 interaction.
In the assay, europium and allophycocyanin (APC) are associated with CD28 and CD80 indirectly (through antibody linkers) to form a complex, which brings the europium and APC into close proximity to generate a signal. The complex comprises the following six proteins: fluorescent label 1, linker antibody 1, CD28 fusion protein, CD80 fusion protein, linker antibody 2, and fluorescent label 2. The table below describes these reagents in greater detail.
On formation of the complex, europium and APC are brought into proximity and a signal is generated.
Non-specific interaction was measured by substituting a mouse Fab fragment (C215) for the CD80 mouse Fab fragment fusion protein (1.9 μg/ml). The assay was carried out in black 384 well plates in a final volume of 30 μl. Assay buffer: 50 mM Tris-HCl, 150 mM NaCl pH7.8, containing 0.1% BSA (w/v) added just prior to use.
Compounds were added to the above reagents in a concentration series ranging between 100 μM-1.7 nM. The reaction was incubated for 4 hours at room temperature. Dual measurements were made using a Wallac Victor 1420 Multilabel Counter. First measurement: excitation 340 nm, emission 665 nm, delay 50 μs, window time 200 μs. second measurement: excitation 340 nm, emission 615 nm, delay 50 μs, window time 200 μs. Counts were automatically corrected for fluorescence crossover, quenching and background. The EC50 activities of compounds tested are recorded as: EC50:*=>10 μM,**=1-10 μM,***=<1 μM.

| EC50 [nM] | SMILES |
| --- | --- |
| 1000 to 10000 | CCC(C)CNC(=O)Nc1ccc(-n2[nH]c3c(nnc4ccccc43)c2=O)cc1 (stereo not shown) [Example 308] |
| > 10000 | O=C(NCCC1=CCCCC1)c1ccc(-n2[nH]c3c(nnc4ccccc43)c2=O)cc1 [Example 272] |
| < 1000 | O=C(NCC(F)F)c1ccc(-n2[nH]c3c(nnc4ccccc43)c2=O)cc1 [Example 311] |
| < 1000 | CCNC(=O)Nc1ccc(-n2[nH]c3c(nnc4ccccc43)c2=O)cc1 [Example 282] |
| 1000 to 10000 | O=C(NCC1CCCO1)c1ccc(-n2[nH]c3c(nnc4ccccc43)c2=O)cc1 (stereo not shown) [Example 238] |
| < 1000 | O=C(NCCCCN1CCCC1)Nc1ccc(-n2[nH]c3c(nnc4ccccc43)c2=O)cc1 [Example 228] |
| < 1000 | O=C(NCc1ccco1)c1ccc(-n2[nH]c3c(nnc4ccccc43)c2=O)cc1 [Example 242] |
| 1000 to 10000 | O=C(NCC1CCNCC1)c1ccc(-n2[nH]c3c(nnc4ccccc43)c2=O)cc1 [Example 256] |
| 1000 to 10000 | CC1CCCC(NC(=O)c2ccc(-n3[nH]c4c(nnc5ccccc54)c3=O)cc2)C1C (stereo not shown) [Example 317] |
| 1000 to 10000 | O=C(NCCCN1CCCC1=O)Nc1ccc(-n2[nH]c3c(nnc4ccccc43)c2=O)cc1 [Example 297] |
| < 1000 | NC1CCC(NC(=O)c2ccc(-n3[nH]c4c(nnc5c(F)cccc54)c3=O)cc2)CC1 (stereo not shown) [Example 410] |

Second part, the compound before the results:

| SMILES | EC50 [nM] |
| --- | --- |
| CC(C)(C)OC(=O)CCNC(=O)Nc1ccc(-n2[nH]c3c(nnc4ccccc43)c2=O)cc1 [Example 223] | 1000 to 10000 |
| Cc1ccc2nnc3c(=O)n(-c4ccc(C(=O)NCCCCN5CCCC5)cc4)[nH]c3c2c1 [Example 409] | < 1000 |
| O=C(NCCc1ccccc1Cl)c1ccc(-n2[nH]c3c(nnc4c(F)cccc43)c2=O)cc1 [Example 360] | 1000 to 10000 |
| O=C(NCCCNC1CCCCC1)c1ccc(-n2[nH]c3c(nnc4cccc(F)c43)c2=O)cc1 [Example 389] | < 1000 |
| O=C(NCCN1CCC(Cc2ccccc2)CC1)Nc1ccc(-n2[nH]c3c(nnc4ccccc43)c2=O)cc1 [Example 224] | < 1000 |
| O=C(NC1CN2CCC1CC2)c1ccc(-n2[nH]c3c(nnc4cccc(F)c43)c2=O)cc1 (stereo not shown) [Example 401] | < 1000 |
| CC(C)(C)c1ccc(CN2CCC(NC(=O)c3ccc(-n4[nH]c5c(nnc6c(F)cccc65)c4=O)cc3)CC2)cc1 [Example 378] | < 1000 |
| O=C(NCCCCN1CCCC1)c1ccc(-n2[nH]c3c(nnc4c(F)ccc(F)c43)c2=O)cc1 [Example 430] | < 1000 |
| CC(C)(C)OC(=O)N1CCN(CCNC(=O)Nc2ccc(-n3[nH]c4c(nnc5ccccc54)c3=O)cc2)CC1 [Example 294] | 1000 to 10000 |
| O=C(NCCCCNC(=O)c1ccc(-n2[nH]c3c(nnc4ccccc43)c2=O)cc1)OCc1ccccc1 [Example 266] | < 1000 |
| O=C(NCCc1cccc(Br)c1)c1ccc(-n2[nH]c3c(nnc4c(F)cccc43)c2=O)cc1 [Example 365] | > 10000 |
| CN(C)CCCNC(=O)c1ccc(-n2[nH]c3c(nnc4cccc(F)c43)c2=O)cc1 [Example 387] | < 1000 |
| O=C(NC1CCN(Cc2ccccc2)C1)c1ccc(-n2[nH]c3c(nnc4cccc(F)c43)c2=O)cc1 (stereo not shown) [Example 399] | < 1000 |
| CN(C)CCCNC(=O)c1ccc(-n2[nH]c3c(nnc4c(F)cc(F)cc43)c2=O)cc1 [Example 414] | < 1000 |
| Cc1ccc(CCNC(=O)c2ccc(-n3[nH]c4c(nnc5c(F)cccc54)c3=O)cc2)cc1 [Example 362] | 1000 to 10000 |
| CC1CCCCN1CCCNC(=O)c1ccc(-n2[nH]c3c(nnc4cccc(F)c43)c2=O)cc1 (stereo not shown) [Example 394] | < 1000 |

same assay, conditions: cell-free HTRF, compound concentration series 100 μM-1.7 nM, 4 hours at room temperature; read-out: Activity (EC50 in the HTRF assay)

| EC50 [nM] | SMILES |
| --- | --- |
| > 10000 | O=C(NC1CCCCCCCCCCC1)c1ccc(-n2[nH]c3c(nnc4ccccc43)c2=O)cc1 [Example 59] |
| 1000 to 10000 | O=C(Nc1ccccc1)c1ccc(-n2[nH]c3c(nnc4ccccc43)c2=O)cc1 [Example 15] |
| < 1000 | O=C(NC1CCN(Cc2ccccc2)CC1)c1ccc(-n2[nH]c3c(nnc4ccccc43)c2=O)cc1 [Example 86] |
| 1000 to 10000 | CC(C)CCNC(=O)c1ccc(-n2[nH]c3c(nnc4ccccc43)c2=O)cc1 [Example 82] |
| 1000 to 10000 | COC(CNC(=O)c1ccc(-n2[nH]c3c(nnc4ccccc43)c2=O)cc1)OC [Example 106] |
| < 1000 | C=CCNC(=O)Nc1ccc(-n2[nH]c3c(nnc4ccccc43)c2=O)cc1 [Example 131] |
| 1000 to 10000 | O=C(NCc1ccc(F)cc1)c1ccc(-n2[nH]c3c(nnc4ccccc43)c2=O)cc1 [Example 56] |
| > 10000 | CC(C)=CCC/C(C)=C/CNC(=O)c1ccc(-n2[nH]c3c(nnc4ccccc43)c2=O)cc1 [Example 14] |
| 1000 to 10000 | CC(NC(=O)c1ccc(-n2[nH]c3c(nnc4ccccc43)c2=O)cc1)C(C)(C)C (stereo not shown) [Example 88] |
| < 1000 | CN1CCCC1CCNC(=O)c1ccc(-n2[nH]c3c(nnc4ccccc43)c2=O)cc1 (stereo not shown) [Example 61] |
| 1000 to 10000 | O=C(NC1CCCC1OCc1ccccc1)c1ccc(-n2[nH]c3c(nnc4ccccc43)c2=O)cc1 (stereo not shown) [Example 90] |
| 1000 to 10000 | O=C(NCC1CCCO1)Nc1ccc(-n2[nH]c3c(nnc4ccccc43)c2=O)cc1 (stereo not shown) [Example 198] |
| > 10000 | O=C(NCC1CCCCCC1)c1ccc(-n2[nH]c3c(nnc4ccccc43)c2=O)cc1 [Example 87] |
| 1000 to 10000 | COCCNC(=O)Nc1ccc(-n2[nH]c3c(nnc4ccccc43)c2=O)cc1 [Example 140] |
| 1000 to 10000 | CC1C(NC(=O)c2ccc(-n3[nH]c4c(nnc5ccccc54)c3=O)cc2)CC2CC1C2(C)C (stereo not shown) [Example 121] |
| 1000 to 10000 | O=C(NCCCO)c1ccc(-n2[nH]c3c(nnc4ccccc43)c2=O)cc1 [Example 111] |
| < 1000 | CCN(CC)CCNC(=O)c1ccc(-n2[nH]c3c(nnc4ccccc43)c2=O)cc1 [Example 60] |
| < 1000 | CN1CCC(NC(=O)c2ccc(-n3[nH]c4c(nnc5ccccc54)c3=O)cc2)CC1 [Example 18] |
| < 1000 | CNCCNC(=O)c1ccc(-n2[nH]c3c(nnc4ccccc43)c2=O)cc1 [Example 48] |
| 1000 to 10000 | CC1CCC(NC(=O)c2ccc(-n3[nH]c4c(nnc5ccccc54)c3=O)cc2)CC1 (stereo not shown) [Example 62] |

The remaining lines, values behind:

| SMILES | EC50 [nM] |
| --- | --- |
| O=C(NCCNc1cccc2ccccc12)Nc1ccc(-n2[nH]c3c(nnc4ccccc43)c2=O)cc1 [Example 152] | > 10000 |
| CC(C)C(C)NC(=O)Nc1ccc(-n2[nH]c3c(nnc4ccccc43)c2=O)cc1 (stereo not shown) [Example 173] | 1000 to 10000 |
| CCCCOC(=O)CNC(=O)Nc1ccc(-n2[nH]c3c(nnc4ccccc43)c2=O)cc1 [Example 215] | > 10000 |
| O=C(Nc1ccc(-n2[nH]c3c(nnc4ccccc43)c2=O)cc1)NC1CCN(Cc2ccccc2)CC1 [Example 123] | 1000 to 10000 |
| CCCCCC(C)NC(=O)Nc1ccc(-n2[nH]c3c(nnc4ccccc43)c2=O)cc1 (stereo not shown) [Example 181] | > 10000 |
| COc1ccc2[nH]cc(CCNC(=O)Nc3ccc(-n4[nH]c5c(nnc6ccccc65)c4=O)cc3)c2c1 [Example 172] | 1000 to 10000 |

same assay, conditions: cell-free HTRF, concentration series 100 μM-1.7 nM, 4 hours at room temperature; read-out: Activity (EC50 in the HTRF assay)

| EC50 [nM] | SMILES |
| --- | --- |
| < 1000 | O=C(NC1CCN(CC2CCCCC2)CC1)c1ccc(-n2[nH]c3c(nnc4c(F)cccc43)c2=O)cc1 [Example 456] |
| 1000 to 10000 | O=C(NC(CO)Cc1c[nH]c2ccccc12)c1ccc(-n2[nH]c3c(nnc4c(F)cccc43)c2=O)cc1 (stereo not shown) [Example 515] |
| < 1000 | CC(CO)(CO)NC(=O)c1ccc(-n2[nH]c3c(nnc4c(F)cccc43)c2=O)cc1 [Example 517] |
| < 1000 | CC1(C)CCCC(C)(C)N1CCCCNC(=O)c1ccc(-n2[nH]c3c(nnc4c(F)cccc43)c2=O)cc1 [Example 466] |
| < 1000 | O=C(NC(CO)Cc1ccccc1)c1ccc(-n2[nH]c3c(nnc4c(F)cccc43)c2=O)cc1 (stereo not shown) [Example 514] |
| < 1000 | O=C(NCC(F)(F)C(F)F)c1ccc(-n2[nH]c3c(nnc4c(F)cccc43)c2=O)cc1 [Example 467] |
| < 1000 | C=CCCN1CCC(NC(=O)c2ccc(-n3[nH]c4c(nnc5c(F)cccc54)c3=O)cc2)CC1 [Example 483] |
| < 1000 | N#CCCNC(=O)c1ccc(-n2[nH]c3c(nnc4c(F)cccc43)c2=O)cc1 [Example 486] |
| < 1000 | O=C(NCCNCCO)c1ccc(-n2[nH]c3c(nnc4c(F)cccc43)c2=O)cc1 [Example 505] |
| < 1000 | CC1CCN(CCCCNC(=O)c2ccc(-n3[nH]c4c(nnc5c(F)cccc54)c3=O)cc2)CC1 [Example 464] |

same assay, conditions: inhibition of the CD80-CD28 interaction, 4 hours at room temperature; read-out: EC50 activity in the HTRF assay

| EC50 [nM] | SMILES |
| --- | --- |
| < 1000 | CN(C)CCCNC(=O)Nc1ccc(-n2[nH]c3c(nnc4ccccc43)c2=O)cc1 [Example 8, N-[3-(dimethylamino)propyl]-N′-[4-(3-oxo-1,3-dihydro-2H-pyrazolo[4,3-c]cinnolin-2-yl)phenyl]urea] |
